Entries after “also recorded” stand apart in the source; their conditions may differ.
Assays:
STAT3 phosphorylation = STAT3 phosphorylation in T cells; format: cell-based, human
CD4+ human T cells [1] = assay: cytokine secretion in anti-CD3/CD28 stimulated CD4+ T cells in vitro; format: cell-based; conditions: anti-CD3/CD28 stimulation
[2] = test system: CD4+ T cells from RA patients; assay: cytokine secretion ex vivo in CD3/CD28 stimulated CD4+ T cells from RA patients; format: cell-based, human
CD4+CD25+ human Tregs = assay: Treg suppression of IL-17 secretion in CD4+CD25- effector T cells; format: cell-based; conditions: Tregs treated 3 hours; Treg:Teff 1:4 and 1:9
PBMCs = assay: ex vivo anti-CD3/CD28 stimulation of cytokine production in PBMCs isolated from treated patients; parameters: species or system human; conditions: 120 mg/day on days 1 and 8-14
CD4+ human T cells [3] = assay: proliferation of T cells in response to TCR stimulation in vitro; format: cell-based; conditions: listed as KD025
human CD4+ T cells = assay: Foxp3 expression in CD4+ T cells after Th17 skewing activation; format: cell-based; conditions: 5 days of Th17 skewing activation
[4] = test system: TGF-β-induced STAT3, MLC and SMAD2/3 phosphorylation; assay: TGF-β-induced phosphorylation of STAT3, MLC and SMAD2/3 in Tregs
[5] = CD4+ T cells from RA patients, ex vivo, listed as KD025

CC(C)NC(=O)COc1cccc(-c2nc(Nc3ccc4[nH]ncc4c3)c3ccccc3n2)c1 [SLx-2119]
STAT3 phosphorylation (STAT3 phosphorylation; Th17-skewing conditions 5 days, then treatment 3 hours): STAT3 phosphorylation was reduced
phosphorylation of STAT3, IRF4 and RORγt (STAT3 phosphorylation; anti-CD3/CD28, TGF-β and IL-1β, 48 hours (FIG. 9C)): reduced phosphorylation of STAT3, as well as IFR4 and RORγT, was confirmed
phosphorylation of STAT3 (STAT3 phosphorylation; pre-treatment, then anti-CD3/CD28 stimulation): reduced phosphorylation of STAT3
IFN-γ secretion (CD4+ human T cells [1]): less robust and significant only at high dose (10 μM)
IL-2 secretion (CD4+ human T cells [1]): observed only at the highest concentration (10 μM)
IL-17 secretion (CD4+ human T cells [1]; listed as KD025): inhibits; also recorded: significantly inhibited
IL-21 secretion (CD4+ human T cells [1]; listed as KD025): inhibits; also recorded: significantly inhibited
frequencies of IL-17 and IFN-γ-producing cells ([2]; 2 RA patients, intracellular staining): significantly reduced the frequencies
IFN-γ secretion [2, 5]: inhibits; also recorded: significantly down-regulated
IL-17 secretion [2, 5]: inhibits; also recorded: significantly down-regulated
IL-21 secretion [2, 5]: inhibits; also recorded: significantly down-regulated
ability of Tregs to suppress IL-17 secretion in CD4+CD25- effector T cells (CD4+CD25+ human Tregs): significantly increased
IFN-γ in PBMCs (PBMCs): No effect
induction of IL-17 secretion in PBMCs (PBMCs): significantly inhibited in PBMCs isolated from four of five patients
induction of IL-21 secretion in PBMCs (PBMCs): significantly inhibited in PBMCs from all five patients
proliferation in response to TCR stimulation (CD4+ human T cells [3]): inhibits; also recorded: down-regulated their ability to proliferate
percentage of Foxp3+ cells (human CD4+ T cells): significantly increased
phosphorylation of SMAD2/3 [4]: remains intact
TGF-β-induced MLC phosphorylation ([4]; dose-dependent): down-regulates
TGF-β-induced STAT3 phosphorylation ([4]; dose-dependent): down-regulates
